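Following 48 hours of exposure in 96-well plates, responses at five concentrations were used to interpolate endpoints linearly. GI50 marks 50% less growth. TGI: total growth inhibition.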
Experiments:
Assay in all cases: DTP human tumour cell line panel, 48 h
[1] = test system: SNB-75 CNS
[2] = test system: MDA-MB-231 breast
[3] = test system: SK-OV-3 ovarian
[4] = test system: CCRF-CEM leukemia
[5] = test system: M14 melanoma
[6] = test system: MALME-3M melanoma
[7] = test system: HL-60(TB) leukemia
[8] = test system: SF-539 CNS
[9] = test system: NCI-H460 lung
[10] = test system: HCC-2998 colon

Row | Structure (SMILES) | TGI [1] | TGI [2] | TGI [3] | TGI [4] | TGI [5] | TGI [6] | TGI [7] | TGI [8] | TGI [9] | TGI [10] | GI50 [1] | GI50 [2] | GI50 [4] | GI50 [5] | GI50 [6] | GI50 [7] | GI50 [8] | GI50 [9] | GI50 [10] | GI50 [3]
1 | OCC1OC(O)C(N=Cc2ccc3c(c2)OCO3)C(O)C1O (configuration not stated) | > 100 µM | > 100 µM | > 100 µM | > 40.1 µM | > 100 µM | > 100 µM | > 100 µM | > 100 µM | > 100 µM | > 100 µM | – | – | – | – | – | – | – | – | – | –
2 | CNC(=O)c1ccc(Nc2nc(OC3CCCC3)c3c(-c4ccc5nc(C)oc5c4)c[nH]c3n2)c(OC)c1 | > 100 µM | > 100 µM | > 100 µM | > 44.4 µM | > 100 µM | > 100 µM | > 100 µM | > 100 µM | > 100 µM | > 100 µM | 0.474 µM | 14 µM | 0.124 µM | 16.9 µM | 21.6 µM | 29.2 µM | 0.332 µM | 0.119 µM | > 100 µM | –
3 | CN(C)c1ccc2[nH]c(O)c(C=Nc3ccc(S(N)(=O)=O)cc3)c2c1 | > 25 µM | > 25 µM | > 25 µM | > 25 µM | > 25 µM | > 25 µM | > 25 µM | > 25 µM | > 25 µM | > 25 µM | > 25 µM | > 25 µM | 17.9 µM | > 25 µM | > 25 µM | > 25 µM | > 25 µM | > 25 µM | > 25 µM | > 25 µM
4 | O=C1C=CC(=O)N1c1ccc2c(c1)Cc1cc(NC(=O)C(F)(F)F)ccc1-2 | 31.3 µM | 32.3 µM | > 100 µM | 16.9 µM | 44 µM | 40.1 µM | 38.1 µM | 32.8 µM | > 100 µM | > 58.9 µM | – | – | – | – | – | – | – | – | – | –
5 | C[C@@H](Oc1cc(-c2cnn(C3CC4(CCNCC4)C3)c2)cnc1N)c1c(F)ccc(Cl)c1Cl | 2.92 µM | 3 µM | 6.75 µM | 6.31 µM | 2.61 µM | 3.02 µM | 3.36 µM | 2.96 µM | 2.84 µM | 3.1 µM | 1.32 µM | 1.26 µM | 1.31 µM | 1.15 µM | 1.29 µM | 1.28 µM | 1.51 µM | 0.855 µM | 1.42 µM | 2.43 µM
6 | O=C(Nc1nc(-c2ccc(Cl)cc2)cs1)c1ccc(O)c(O)c1 | 17.4 µM | 20.4 µM | 22.4 µM | 9.35 µM | 20.5 µM | 22.2 µM | 9.53 µM | 14.8 µM | 12.2 µM | 26.5 µM | 3.25 µM | 4.39 µM | 2.22 µM | 4.87 µM | 5.73 µM | 2.85 µM | 3.92 µM | 3.26 µM | 12 µM | 6.83 µM
7 | O=C(/C=C/c1ccc2c(c1)OCO2)c1ccccc1 | 61.9 µM | 75.6 µM | 83.1 µM | 81.2 µM | 29.8 µM | 37.9 µM | 61.6 µM | 54.5 µM | 37.5 µM | 30.2 µM | 20.6 µM | 24.4 µM | 19.1 µM | 13.2 µM | 13.9 µM | 17.8 µM | 20.5 µM | 13.9 µM | 16 µM | 27.5 µM
8 | CN1CCN(Cc2ccc(NC(=O)c3[nH]ncc3Nc3ccnc4ccsc34)cc2)CC1 | 3.54 µM | 9.71 µM | 23.5 µM | 9.26 µM | 16.9 µM | 13.7 µM | 5.85 µM | 3.42 µM | 12 µM | 10.1 µM | 0.222 µM | 3.56 µM | 2.45 µM | 3.69 µM | 3.44 µM | 2.49 µM | 1.35 µM | 3.15 µM | 2.75 µM | 1.05 µM
9 | COc1cc2c3c(n(CCCn4ccnc4)c(=O)c2cc1OC)-c1ccccc1C3=O | 4.33 µM | 5.19 µM | – | – | 0.116 µM | > 60.8 µM | 0.102 µM | 0.441 µM | 4.77 µM | 0.504 µM | 0.0681 µM | 0.254 µM | < 0.01 µM | < 0.0171 µM | 1.06 µM | < 0.01 µM | < 0.0373 µM | < 0.01 µM | 0.0598 µM | 1.13 µM
10 | O=C(CSc1nc2sc3c(c2c(=O)n1-c1ccccc1)CCCCC3)N/N=C/c1ccc(F)cc1 | 4.93 µM | 3.27 µM | 11.8 µM | > 100 µM | > 100 µM | 5.86 µM | > 100 µM | 3.53 µM | 2.98 µM | > 100 µM | 1.85 µM | 1.04 µM | 3.16 µM | 5.72 µM | 1.67 µM | > 100 µM | 1.85 µM | 1.12 µM | 49.5 µM | 3.47 µM
11 | O=C1C(Br)=C(c2ccccc2)C(c2ccccc2)=C1c1ccccc1 | 12.9 µM | 6.05 µM | 29.3 µM | 2.02 µM | 4.46 µM | 3.33 µM | 2.31 µM | 8.07 µM | 18 µM | 15.9 µM | – | – | – | – | – | – | – | – | – | –
